According to PMC12314110, “Evaluation of Potential Effects of CYP3A Inhibition and CYP3A Induction on the Pharmacokinetics of Fruquintinib in Healthy Subjects” (Clinical Pharmacology in Drug Development, 2025):

Columns and labels:
P‐gp = settings: no reference given; cited from earlier work
[1] = Safety assessments (adverse events) in healthy subjects; assay type: in vivo, human; settings: Part A, fruquintinib 5 mg alone or with itraconazole, healthy subjects
Procedure: Safety was assessed by evaluation of adverse events (AEs), serious AEs, AEs of special interest, physical examinations, vital signs, single 12‐lead electrocardiograms and cardiac monitoring, and clinical laboratory data. All AEs were coded using the Medical Dictionary for Regulatory Activities Version 23.0, and their severity was graded using the National Cancer Institute Common Terminology Criteria for Adverse Events Version 5.0.

Compound: CNC(=O)c1c(C)oc2cc(Oc3ncnc4cc(OC)c(OC)cc34)ccc12 [Fruquintinib]
- P‐gp substrate (P‐gp): not a P‐gp substrate
- adverse events [1]: no AEs reported
